Activity calls are given as the source filed them. The calls are words filed in the database; no cut-off is given here.
How the values were obtained:
[1] = Lipophilicity, logD of compound at pH 7.4; assay type: physicochemical; details: buffer
[2] = target: Amyloid-beta precursor protein (Homo sapiens) (UniProt P05067); test: Inhibition of amyloid beta (unknown origin) aggregation at 10 uM incubated for 5 mins by thioflavin fluorescent based analysis relative to control
[3] = Lipophilicity, logP of compound; assay type: physicochemical; details: octanol/water
[4] = target: Cholinesterase (Equus caballus, UniProt P81908); test: Inhibition of equine serum BuChE by Ellman's method
Chain of Cholinesterase (P81908 whole entry): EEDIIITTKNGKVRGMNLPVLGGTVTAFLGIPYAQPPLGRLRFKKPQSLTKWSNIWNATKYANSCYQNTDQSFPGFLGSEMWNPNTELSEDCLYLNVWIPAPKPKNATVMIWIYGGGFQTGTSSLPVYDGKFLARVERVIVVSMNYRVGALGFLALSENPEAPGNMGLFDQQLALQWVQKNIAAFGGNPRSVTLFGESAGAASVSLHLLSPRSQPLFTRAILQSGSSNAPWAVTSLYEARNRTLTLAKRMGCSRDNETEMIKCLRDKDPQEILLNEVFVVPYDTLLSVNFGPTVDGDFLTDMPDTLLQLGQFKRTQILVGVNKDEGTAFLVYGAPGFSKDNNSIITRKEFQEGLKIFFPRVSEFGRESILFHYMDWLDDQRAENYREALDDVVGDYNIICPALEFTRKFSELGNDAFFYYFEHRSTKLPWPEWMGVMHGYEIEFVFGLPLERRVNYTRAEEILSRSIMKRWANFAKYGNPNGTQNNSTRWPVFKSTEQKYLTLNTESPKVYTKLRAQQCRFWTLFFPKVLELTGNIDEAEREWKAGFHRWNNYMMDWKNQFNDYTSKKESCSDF

[5] = target: Cholinesterase (Equus caballus) (UniProt P81908); test: Inhibition of equine serum BuChE
Chain of Cholinesterase (Equus caballus) (P81908 whole entry): as above

[6] = target: Acetylcholinesterase (Electrophorus electricus) (UniProt O42275); test: Inhibition of Electric eel AChE relative to control; details: concentration not given here
Chain of Acetylcholinesterase (Electrophorus electricus) (O42275 24-633 limits assumed): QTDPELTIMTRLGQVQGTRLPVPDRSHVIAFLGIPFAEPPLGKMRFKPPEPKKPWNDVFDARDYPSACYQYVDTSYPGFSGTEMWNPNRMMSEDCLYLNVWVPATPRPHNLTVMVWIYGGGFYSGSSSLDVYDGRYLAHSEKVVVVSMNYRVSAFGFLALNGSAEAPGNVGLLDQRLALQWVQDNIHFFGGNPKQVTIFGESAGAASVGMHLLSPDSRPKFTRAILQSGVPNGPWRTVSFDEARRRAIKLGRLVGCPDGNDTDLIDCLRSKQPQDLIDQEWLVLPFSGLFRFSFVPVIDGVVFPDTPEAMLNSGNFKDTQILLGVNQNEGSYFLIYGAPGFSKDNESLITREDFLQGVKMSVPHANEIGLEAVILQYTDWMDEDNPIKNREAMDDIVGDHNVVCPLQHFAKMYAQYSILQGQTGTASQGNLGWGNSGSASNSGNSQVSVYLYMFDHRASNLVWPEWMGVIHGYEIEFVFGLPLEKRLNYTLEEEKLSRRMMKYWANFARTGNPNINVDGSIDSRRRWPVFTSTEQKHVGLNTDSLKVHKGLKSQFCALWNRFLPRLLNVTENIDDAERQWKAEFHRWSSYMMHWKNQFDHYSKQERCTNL

[7] = target: Cholinesterase (Equus caballus) (UniProt P81908); test: Inhibition of equine serum BuChE at 10 uM by Ellman's method relative to control

Chain of Amyloid-beta precursor protein (Homo sapiens) (P05067 whole entry): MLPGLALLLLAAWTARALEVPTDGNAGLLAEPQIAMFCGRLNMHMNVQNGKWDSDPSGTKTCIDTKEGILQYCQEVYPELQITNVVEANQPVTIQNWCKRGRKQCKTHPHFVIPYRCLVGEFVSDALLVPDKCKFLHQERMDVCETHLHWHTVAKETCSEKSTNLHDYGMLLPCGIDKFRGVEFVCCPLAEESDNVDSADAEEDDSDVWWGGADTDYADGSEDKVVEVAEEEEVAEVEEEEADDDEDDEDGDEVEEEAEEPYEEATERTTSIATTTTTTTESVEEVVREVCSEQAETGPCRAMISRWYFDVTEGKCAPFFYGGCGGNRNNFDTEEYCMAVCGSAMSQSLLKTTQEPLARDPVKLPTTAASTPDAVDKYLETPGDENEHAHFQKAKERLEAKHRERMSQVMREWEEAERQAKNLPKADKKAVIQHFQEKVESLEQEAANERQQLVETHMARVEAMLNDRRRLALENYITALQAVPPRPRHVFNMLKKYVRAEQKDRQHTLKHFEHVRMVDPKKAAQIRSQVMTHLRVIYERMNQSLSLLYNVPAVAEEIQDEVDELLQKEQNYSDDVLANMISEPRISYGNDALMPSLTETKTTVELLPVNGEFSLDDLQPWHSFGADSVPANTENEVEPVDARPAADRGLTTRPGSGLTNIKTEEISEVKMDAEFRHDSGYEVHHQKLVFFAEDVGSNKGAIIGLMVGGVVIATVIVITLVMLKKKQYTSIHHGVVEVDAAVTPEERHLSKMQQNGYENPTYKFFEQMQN

Compound: CC(C)(C)c1cccc(CNCC(O)CNCCC(c2ccccc2)c2ccccc2)c1 (centres undefined)
- logD [1]: 3.7
- inhibition [2]: 4.6%
- logP [3]: 5.96

Compound: O=C(CC(c1ccccc1)c1ccccc1)NCC(O)CNCC1CCCCC1 (centres undefined)
- logD [1]: 1.43
- inhibition [2]: 4.6%
- IC50 [4]: 78 nM

Compound: O=C(NC[C@@H](O)CNCC1CCCCCC1)C1c2ccccc2-c2ccccc21
- inhibition [2]: 4.6%
- IC50 [4]: 31 nM

Compound: O=C(NC[C@H](O)CNCC1CCCCCC1)C1c2ccccc2-c2ccccc21
- inhibition [2]: 4.6%
- IC50 [4]: 288 nM

Compound: Nc1c2c(nc3ccccc13)CCCC2
- inhibition [2]: 4.6%

Compound: CC(C)(C)CNCC(O)CNC(=O)CC1c2ccccc2-c2ccccc21 (racemic)
- logD [1]: 0.73
- inhibition [2]: 4.6%
- IC50 [4]: 672 nM

Compound: O=C(NCC(O)CNCC1CCCCC1)C1c2ccccc2-c2ccccc21 (racemic)
- logD [1]: 0.91
- inhibition [2]: 4.6%
- IC50 [4]: 231 nM

Compound: O=C(NCC(O)CNCCC1CCCCC1)C1c2ccccc2-c2ccccc21 (racemic)
- logD [1]: 1.41
- inhibition [2]: 60.7%
- IC50 [4]: 475 nM

Compound: O=C(CC1c2ccccc2-c2ccccc21)NCC(O)CNCCC1CCCCC1 (racemic)
- logD [1]: 1.6
- inhibition [2]: 4.6%
- IC50 [4]: 422 nM

Compound: O=C(NCC(O)CNCC1CCCCCC1)C1c2ccccc2-c2ccccc21 (racemic)
- logD [1]: 1.36
- inhibition [2]: 4.6%
- IC50 [4]: 38 nM

Compound: O=C(CC1c2ccccc2-c2ccccc21)NCC(O)CNCC1CCCCCC1 (racemic)
- logD [1]: 1.55
- inhibition [2]: 4.6%
- IC50 [4]: 1090 nM

Compound: O=C(CC1c2ccccc2-c2ccccc21)NCC(O)CNCC1CCCCC1 (racemic)
- logD [1]: 1.1
- inhibition [2]: 4.6%
- IC50 [4]: 1690 nM

Compound: O=C(CC1c2ccccc2-c2ccccc21)NCC(O)CNCC1CC1 (racemic)
- logD [1]: -0.1
- inhibition [2]: 4.6%
- inhibition [5]: inactive
- inhibition [6]: > 20%
- inhibition [7]: 44.5%

Compound: O=C(NCC(O)CNCc1ccccc1)C1c2ccccc2-c2ccccc21 (racemic)
- logD [1]: 1.78
- inhibition [2]: 4.6%
- IC50 [4]: 627 nM

Compound: O=C(CC1c2ccccc2-c2ccccc21)NCC(O)CNC1CCCCC1 (racemic)
- logD [1]: 0.79
- inhibition [2]: 4.6%
- IC50 [4]: 1490 nM

Compound: CC(C)(C)CNCC(O)CNC(=O)C1c2ccccc2-c2ccccc21 (racemic)
- logD [1]: 0.54
- inhibition [2]: 4.6%
- IC50 [4]: 385 nM

Compound: O=C(CC1c2ccccc2-c2ccccc21)NCC(O)CNCC1CCCC1 (racemic)
- logD [1]: 0.66
- inhibition [2]: 4.6%
- IC50 [4]: 1710 nM

Compound: O=C(CC1c2ccccc2-c2ccccc21)NCC(O)CNCc1ccccc1 (racemic)
- logD [1]: 1.88
- inhibition [2]: 4.6%
- IC50 [4]: 4330 nM

Compound: O=C(NCC(O)CNCC1CC1)C1c2ccccc2-c2ccccc21 (racemic)
- logD [1]: -0.29
- inhibition [2]: 4.6%
- IC50 [4]: 435 nM

Compound: O=C(NCC(O)CNC1CCCCC1)C1c2ccccc2-c2ccccc21 (racemic)
- logD [1]: 0.6
- inhibition [2]: 4.6%
- IC50 [4]: 336 nM

Compound: O=C(NCC(O)CNCC1CCCC1)C1c2ccccc2-c2ccccc21 (racemic)
- logD [1]: 0.47
- inhibition [2]: 4.6%
- IC50 [4]: 379 nM

Compound: O=C(NCC(O)CNCC(F)(F)F)C1c2ccccc2-c2ccccc21 (racemic)
- logD [1]: 2.33
- inhibition [2]: 67.6%
- IC50 [4]: 12900 nM

Reference: ChEMBL document CHEMBL5380880, “Novel drug-like fluorenyl derivatives as selective butyrylcholinesterase and β-amyloid inhibitors for the treatment of Alzheimer's disease” (Bioorg Med Chem, 2023)
